Values of other authors, collected in patent publication US20220378857A1, “COMPOSITION FOR THE CARDIOVASCULAR RISK REDUCTION” (NEILOS S.R.L., priority 2019, published 2022).
Read-outs that look alike come from different tables or passages of the source.

[1] = 7.5 mg/die of active principle for 12 weeks
[2] = 11.4 mg/die of monacolin for 8 weeks

CC[C@H](C)C(=O)O[C@H]1C[C@@H](C)C=C2C=C[C@H](C)[C@H](CC[C@@H]3C[C@@H](O)CC(=O)O3)[C@H]21 [monacolin, monacolin k]
reduction in the levels of LDL cholesterol [1]: 22% | reduction in the levels of total cholesterol [1]: 16% | reduction in the levels of LDL cholesterol [2]: 26% | reduction in the levels of total cholesterol [2]: 20%
